Results reported in patent US10597388B2, “Pyridazinone herbicides” (FMC CORPORATION, priority 2014, dated 2020).

Key:
Experiment in all cases: Test D controlled growth environment herbicide test, pre- and postemergence
Type in all cases: in vivo
[1] = tested on: barley, spring (spring barley, Hordeum vulgare)
Method in brief: (§1)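 Rating is visual, 0–100 scale (100 = complete control), made against untreated plants 14–21 d after treatment in controlled growth conditions. Postemergence sprays went onto 1- to 4-leaf plants in peat medium; preemergence sprays onto silt loam after sowing; formulation included a surfactant.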

[2] = tested on: foxtail, green (green foxtail, Setaria viridis)
Method in brief: as §1

[3] = tested on: blackgrass (Alopecurus myosuroides)
Method in brief: as §1

[4] = tested on: wheat, winter (winter wheat, Triticum aestivum)
Method in brief: as §1

[5] = tested on: chamomile (scentless chamomile, Matricaria inodora)
Method in brief: as §1

[6] = tested on: chickweed (common chickweed, Stellaria media)
Method in brief: as §1

[7] = tested on: field poppy (Papaver rhoeas)
Method in brief: as §1

[8] = tested on: wheat, spring (spring wheat, Triticum aestivum)
Method in brief: as §1

[9] = tested on: deadnettle (henbit deadnettle, Lamium amplexicaule)
Method in brief: as §1

[10] = tested on: barley, winter (winter barley, Hordeum vulgare)
Method in brief: as §1

[11] = tested on: ryegrass, Italian (Italian ryegrass, Lolium multiflorum)
Method in brief: as §1

[12] = tested on: lambsquarters (Chenopodium album)
Method in brief: as §1

[13] = tested on: bromegrass, downy (downy bromegrass, Bromus tectorum)
Method in brief: as §1

[14] = Postemergence, 31 g ai/ha, scale 0 to 100 (0 no effect, 100 complete control)
[15] = Postemergence, 125 g ai/ha, visual rating on scale 0 (no effect) to 100 (complete control), 14 to 21 d
[16] = Postemergence, 250 g ai/ha, scale 0 to 100 (0 no effect, 100 complete control)
[17] = Preemergence, 62 g ai/ha, scale 0 to 100 (0 no effect, 100 complete control)
[18] = Preemergence, 125 g ai/ha, scale 0 to 100 (0 no effect, 100 complete control)
[19] = Preemergence, 250 g ai/ha, scale 0 to 100 (0 no effect, 100 complete control)
[20] = postemergence, 62 g ai/ha, scale 0 to 100, 0 no effect, 100 complete control

Question: What does the source list for `CCC(=O)Oc1c(C)nn(C)c(=O)c1-c1c(C)sc2ccc(Cl)cc12` [Compound 109]?
Answer: Barley, Spring plant response rating [1, 14]: 0; Plant response rating, Barley, Spring [1, 15]: 10; Plant response rating, Barley, Spring [1, 16]: 25; Plant response rating (scale of 0 to 100), Barley, Spring ([1]; Preemergence, 31 g ai/ha): 0; Plant response rating, Barley, Spring [1, 17]: 0; Plant response rating, Barley, Spring [1, 18]: 5; Plant response rating, Barley, Spring [1, 19]: 5; Plant response rating, Barley, Spring [1, 20]: 5; Foxtail, Green plant response rating [2, 14]: 55; Plant response rating, Foxtail, Green [2, 15]: 75; Plant response rating, Foxtail, Green [2, 16]: 85; Plant response rating (scale of 0 to 100), Foxtail, Green ([2]; Preemergence, 31 g ai/ha): 0; Plant response rating (scale of 0 to 100), Foxtail, Green ([2]; Preemergence, 62 g ai/ha): 65; Plant response rating, Foxtail, Green [2, 18]: 75; Plant response rating, Foxtail, Green [2, 19]: 95; Plant response rating, Foxtail, Green [2, 20]: 65; Blackgrass plant response rating [3, 14]: 20; Plant response rating, Blackgrass [3, 15]: 65; Plant response rating, Blackgrass [3, 16]: 75; Plant response rating (scale of 0 to 100), Blackgrass ([3]; Preemergence, 31 g ai/ha): 25; Plant response rating, Blackgrass [3, 17]: 25; Plant response rating, Blackgrass [3, 18]: 75; Plant response rating, Blackgrass [3, 19]: 80; Plant response rating, Blackgrass [3, 20]: 30; Wheat, Winter plant response rating [4, 14]: 10; Plant response rating, Wheat, Winter [4, 15]: 25; Plant response rating, Wheat, Winter [4, 16]: 35; Plant response rating (scale of 0 to 100), Wheat, Winter ([4]; Preemergence, 31 g ai/ha): 0; Plant response rating (scale of 0 to 100), Wheat, Winter ([4]; Preemergence, 62 g ai/ha): 0; Plant response rating, Wheat, Winter [4, 18]: 5; Plant response rating, Wheat, Winter [4, 19]: 20; Plant response rating, Wheat, Winter [4, 20]: 15; Chamomile plant response rating [5, 14]: 80; Plant response rating, Chamomile [5, 15]: 95; Plant response rating, Chamomile [5, 16]: 100; Plant response rating, Chamomile [5, 20]: 85; Chickweed plant response rating [6, 14]: 100; Plant response rating, Chickweed [6, 15]: 100; Plant response rating, Chickweed [6, 16]: 100; Plant response rating (scale of 0 to 100), Chickweed ([6]; Preemergence, 31 g ai/ha): 100; Plant response rating (scale of 0 to 100), Chickweed ([6]; Preemergence, 62 g ai/ha): 100; Plant response rating, Chickweed [6, 18]: 100; Plant response rating, Chickweed [6, 19]: 100; Plant response rating, Chickweed [6, 20]: 100; Field Poppy plant response rating [7, 14]: 45; Plant response rating, Field Poppy [7, 15]: 75; Plant response rating, Field Poppy [7, 16]: 85; Plant response rating (scale of 0 to 100), Field Poppy ([7]; Preemergence, 31 g ai/ha): 100; Plant response rating (scale of 0 to 100), Field Poppy ([7]; Preemergence, 62 g ai/ha): 100; Plant response rating, Field Poppy [7, 18]: 100; Plant response rating, Field Poppy [7, 19]: 100; Plant response rating, Field Poppy [7, 20]: 50; Wheat, Spring plant response rating [8, 14]: 5; Plant response rating, Wheat, Spring [8, 15]: 25; Plant response rating, Wheat, Spring [8, 16]: 30; Plant response rating (scale of 0 to 100), Wheat, Spring ([8]; Preemergence, 31 g ai/ha): 0; Plant response rating (scale of 0 to 100), Wheat, Spring ([8]; Preemergence, 62 g ai/ha): 5; Plant response rating, Wheat, Spring [8, 18]: 20; Plant response rating, Wheat, Spring [8, 19]: 40; Plant response rating, Wheat, Spring [8, 20]: 15; Deadnettle plant response rating [9, 14]: 20; Plant response rating, Deadnettle [9, 15]: 70; Plant response rating, Deadnettle [9, 16]: 95; Plant response rating (scale of 0 to 100), Deadnettle ([9]; Preemergence, 31 g ai/ha): 0; Plant response rating (scale of 0 to 100), Deadnettle ([9]; Preemergence, 62 g ai/ha): 60; Plant response rating, Deadnettle [9, 18]: 80; Plant response rating, Deadnettle [9, 19]: 95; Plant response rating, Deadnettle [9, 20]: 50; Barley, Winter plant response rating [10, 14]: 5; Plant response rating, Barley, Winter [10, 15]: 5; Plant response rating, Barley, Winter [10, 16]: 20; Plant response rating (scale of 0 to 100), Barley, Winter ([10]; Preemergence, 31 g ai/ha): 0; Plant response rating, Barley, Winter [10, 17]: 0; Plant response rating, Barley, Winter [10, 18]: 0; Plant response rating, Barley, Winter [10, 19]: 10; Plant response rating, Barley, Winter [10, 20]: 0; Ryegrass, Italian plant response rating [11, 14]: 85; Plant response rating, Ryegrass, Italian [11, 15]: 95; Plant response rating, Ryegrass, Italian [11, 16]: 100; Plant response rating (scale of 0 to 100), Ryegrass, Italian ([11]; Preemergence, 31 g ai/ha): 80; Plant response rating (scale of 0 to 100), Ryegrass, Italian ([11]; Preemergence, 62 g ai/ha): 95; Plant response rating, Ryegrass, Italian [11, 18]: 100; Plant response rating, Ryegrass, Italian [11, 19]: 100; Plant response rating, Ryegrass, Italian [11, 20]: 85; Lambsquarters plant response rating [12, 14]: 90; Plant response rating, Lambsquarters [12, 15]: 95; Plant response rating, Lambsquarters [12, 16]: 100; Plant response rating (scale of 0 to 100), Lambsquarters ([12]; Preemergence, 31 g ai/ha): 95; Plant response rating (scale of 0 to 100), Lambsquarters ([12]; Preemergence, 62 g ai/ha): 100; Plant response rating, Lambsquarters [12, 18]: 100; Plant response rating, Lambsquarters [12, 19]: 100; Plant response rating, Lambsquarters [12, 20]: 95; Bromegrass, Downy plant response rating [13, 14]: 30; Plant response rating, Bromegrass, Downy [13, 15]: 60; Plant response rating, Bromegrass, Downy [13, 16]: 75; Plant response rating (scale of 0 to 100), Bromegrass, Downy ([13]; Preemergence, 31 g ai/ha): 0; Plant response rating, Bromegrass, Downy [13, 17]: 30; Plant response rating, Bromegrass, Downy [13, 18]: 65; Plant response rating, Bromegrass, Downy [13, 19]: 65; Plant response rating, Bromegrass, Downy [13, 20]: 30
